Source: patent US20200276312A1, “Elimination of chronic pain by chronic activation of adenosine receptor type A1 in peripheral sensory neurons” (University of Rochester, priority 2019, published 2020)
“Also recorded” adds a separate entry of the source.

Tests used:
[1] = system: mice with MIA-induced inflammatory chronic pain; assay: von Frey mechanical sensitivity in MIA-induced inflammatory chronic pain; type: in vivo, mouse; conditions: for acupuncture-induced RHyp (resolution of hypersensitivity): agent given with repetitive acupuncture (DPCPX, topical lidocaine at ST36; caffeine oral 0.1 mg/ml); for acupuncture-induced acute analgesia: agent applied at ST36 prior to each acupuncture
Description: To assess if repetitive application of acupuncture produces an extension of transient analgesia or RHyp, inflammatory chronic pain was induced by administering monosodium iodoacetate (MIA) in the hind limb knee joints of mice (FIG. 1A and FIG. 5A), in which spreading of hypersensitivity (hyperalgesia and allodynia) in the limb develops in 3 weeks and never wears off thereafter (Combe et al., 2004, Neurosci Lett 370:236-240; Ogbonna et al., 2015, Age (Dordr) 37:9792; Rahman & Dickenson, 2015, Neuroscience 295:103-116). […] Manual acupuncture, given twice a week at ST36, induced acute analgesia in weeks 2 and 3 as well. […] This delayed-onset reduction of hypersensitivity was not a result of loss of the knee arthritis pathology, as indicated by the synovial membrane hypertrophy (FIG. 5B). […] In order to identify the cell type whose A1R mediates acute analgesia and RHyp, transgenic mice with conditional deletion of A1R selectively in sensory neurons were generated (Akopian et al, 1996, Nature 379:257-262; Stirling et al., 2005, Pain 113:27-36). (FIG. 5C). […] Both acute analgesia and RHyp were absent with repetitive administration of vehicle (FIG. 5D). […] Combined, chronic activation of A1R in sensory neurons resolves sensitization state, which can be induced by repetitive acupuncture.
Mechanical sensitivity was measured using a slightly modified Semmes-Weinstein von Frey Aesthesiometer touch test. Before beginning the measurement session, animals were acclimated to the acrylic chamber (IITC Life Science, Woodland Hills, Calif.) for 60 minutes per day for two days. Baseline mechanosensitivity was measured at least twice on different days to validate the stable, low mechanosensitivity in all mice prior to pain induction administered on the day of the second measurement. The average of the two measurements was recorded as the baseline sensitivity value. Pain-induced hyper-mechanosensitivity was evaluated three weeks after the intra-articular administration of monosodium iodoacetate (MIA, Sigma-Aldrich, 60 mg/ml, 5 μl) to a knee joint. Of note, most other inflammatory pain models cannot stably sustain hypersensitivity over months. The evaluation was performed by gently applying a thin filament of 0.04 g force to the hind paw of the animals, and the rapid retraction or tapping of the foot was counted as a positive response. A total of six trials were given to a paw in one measurement session with an interval of at least 5 min between each trial. Positive responses in the all trials were recorded, and the data were represented as the percent of positive responses. Percent change in mechanosensitivity by treatments was obtained by subtracting values of percent responses before acupuncture from that after acupuncture for each animal. […] All behavioral measurements were done at the same time of the day during the 12-hour light cycle.
For acupuncture treatment, animals were placed in a restrainer with the hind leg, ipsilateral to the knee inflammation, secured and loosely stretched. An acupuncture needle (0.20 mm; DBC Spring, Lhasa OMS, Weymouth, Mass.) was gently inserted to ST36 Zusanli point (3-4 mm below and 1-2 mm lateral from the midline from the knee) at a depth of 1.5 mm,^40 then slowly rotated for 1 minute every 3-4 minutes for a 20-minute session while the mice were awake. For sham treatment, the acupuncture needle was inserted in the same way, but then untouched for 20 minutes. The animals were immediately transferred back to the chamber and acclimated for at least 15 minutes before the post-treatment mechanosensitivity measurements. In selected experiments, solution of 2-Chloro-N^6-cyclopentyladenosine (CCPA, Sigma-Aldrich, 100 μM, 5 μl) was administered to ST36 at a depth of 1.5 mm instead of acupuncture needle. 8-Cyclopentyl-1,3-dipropylxanthine (DPCPX, Sigma-Aldrich, 100 µM, 5 μl) was administered to ST36 at a depth of 1.5 mm prior to acupuncture needle insertion. […]

[2] = system: mice with CFA-induced acute inflammatory pain; assay: ankle circumference (swelling) in CFA model; type: in vivo, mouse; conditions: day five, compared to CFA-induced group that received F5-Phe gel
[3] = system: mice with CFA-induced acute inflammatory pain; assay: von Frey mechanical sensitivity in CFA-induced acute inflammatory pain; type: in vivo, mouse
sciatic nerve tissue = assay: CCPA permeability into sciatic nerve in vivo; set-up: species or system mouse
Method: For quantification of CCPA permeability, parafilm (7×20 mm) was placed underneath of the exposed sciatic nerve which was then covered with a custom-made enclosure (6.5 mm length plastic tube, 1.5 mm inner diameter with 120° opening) to control the length of nerve exposed to the drugs. The enclosure surrounding the nerve was gently filled with 10 μl of CCPA (5 mM) alone or a mixture of CCPA and an ENT1/2 inhibitor, 6-S-[(4-Nitrophenyl)methyl]-6-thioinosine (NBMPR, Thermo Fisher, 1 mM). After 90 minutes, the nerve was washed with PBS, extracted (6 mm length), and stored at −80° C. Tissues were homogenized in methanol using FastPrep-24 5G with CoolPrep adapter (MP Biomedicals) and incubated for 12-14 hours at −20° C. After centrifuging at 12,000 g for 15 minutes, the supernatants were dried down in CentriVap concentrator and then reconstituted in 50% DMSO. In the pilot studies, it was confirmed that highest recovery rate of CCPA was obtained with homogenization in methanol, compared to that in ethanol or HEPES buffer solution followed by ultrafilteration, and recovery rate was calculated as 95.19%. The concentrations of CCPA in samples were quantified by HPLC.

[4] = in vitro release of CCPA from Fmoc-F5-Phe cation hydrogel (HPLC); type: physicochemical; conditions: 37° C.
Method: To determine the amount of CCPA released from a 1 mL hydrogel of the Fmoc-F^5-Phe cation (33.7 mM Fmoc-F^5-Phe cation, 114 mM NaCl, 0.5 mM CCPA) as a function of time, 1.5 mL of isotonic water (114 mM NaCl) was slowly added to the top of the gel to avoid disrupting the gel. This bilayer mixture was sealed in a screw top vial and placed in a 37° C. oven. Aliquots (80 μL) were removed 20 min, 40 min, 60 min, 2 h, 3 h, 4 h, 6 h, 30 h, 54 h, and 78 h after the salt water was initially layered over the gel. After removing each aliquot, the salt solution was immediately replaced with an equal volume of salt solution (80 μL, 114 mM NaCl). Aliquots were assessed by injection onto analytical HPLC instrument in order to determine the amount of CCPA that had been released. A Shimadzu 2010A HPLC instrument equipped with a Phenomenex Gemini 5 micron C18 column (250×4.6 mm) with a guard column was used to determine concentration of the CCPA released into the 1.5 mL salt solution by correlation of integrated peak area to a previously constructed CCPA concentration curve. This concentration was converted to mol of CCPA and the diffusion coefficient was determined using Equation 1. […]

With `COc1cccc(C2(O)CCCCC2CN(C)C)c1` (stereo not drawn) [tramadol] the “acute analgesia and RHyp” value ([1]; repetitive systemic administration) was “gradual loss of acute analgesia instead of RHyp”.

For `CCCC(=O)Nc1ncnc2c1ncn2[C@@H]1O[C@@H]2COP(=O)(O)O[C@H]2[C@H]1OC(=O)CCC` [dbcAMP, N^6,O^2-dibutyryladenosine 3,5-cyclic monophosphate], the “delay of onset of RHyp” value ([1]; co-delivered with CCPA by F5-Phe, submuscular at ST36) was 3 weeks.

For `O=C(O)Cc1ccccc1Nc1c(Cl)cccc1Cl` [Dcf, diclofenac], the ankle circumference [2] was “slightly lower circumferences”, the mechanical sensitivity ([3]; from 24 h after injection over the final 13 days, 0.1 mg/mL, 10 μL) was about 80% and the “relative percentage of hind paw sensitivity” value ([3]; within hours of injection, versus gel lacking diclofenac) was “decreased significantly”.

For `O=[N+]([O-])c1ccc(CSc2ncnc3c2ncn3[C@@H]2O[C@H](CO)[C@@H](O)[C@H]2O)cc1` [NBMPR, 6-S-[(4-Nitrophenyl)methyl]-6-thioinosine], the “effect on CCPA entry into sciatic nerve” value (sciatic nerve tissue; NBMPR 1 mM mixed with CCPA 5 mM) was “reduced the CCPA entry”.

In the case of `Cn1c(=O)c2c(ncn2C)n(C)c1=O` [caffeine], the “acupuncture-induced RHyp (resolution of hypersensitivity)” value (from here on “acupuncture-induced RHyp”) [1] is reported as “abolished”.

For `CCN(CC)CC(=O)Nc1c(C)cccc1C` [lidocaine], the acupuncture-induced acute analgesia [1] was “loss of acupuncture-induced acute analgesia”, the “acupuncture-induced RHyp” value [1] was “RHyp was induced” and the hind paw sensitivity ([1]; topical 5% lidocaine at ST36 without acupuncture) was “no changes in hind paw hypersensitivity; also recorded: did not modulate hind paw sensitivity”.

In the case of `OC[C@H]1O[C@@H](n2cnc3c(NC4CCCC4)nc(Cl)nc32)[C@H](O)[C@@H]1O` [CCPA, 2-Chloro-N^6-cyclopentyladenosine], the “response of hypersensitivity (acute analgesia, RHyp)” value ([1]; A1R conditional knockout (A1RcKO) mice, repetitive administration) is reported as “unresponsive”, the re-emergence of hypersensitivity ([1]; WT animals, post-treatment observation period) is reported as “never re-emerged” and the RHyp ([1]; repetitive CCPA solution (100 μM, 5 μl) at ST36 instead of acupuncture) is reported as “induced RHyp”. The “diffusion coefficient of CCPA release” value ([4]; 1 mL gel, 33.7 mM gelator, 500 μM CCPA, 114 mM NaCl, first 200 minutes) was 3.15×10^−9 m^2 min^−1, the “duration of continuous release from F5-Phe hydrogel” value ([4]; CCPA 500 μM) was 15 days and the “CCPA entry into sciatic nerve” value (sciatic nerve tissue; CCPA 5 mM applied outside the nerve in vivo, 90 minutes) was “found inside the sciatic nerve tissue”.

For `CCCn1c(=O)c2[nH]c(C3CCCC3)nc2n(CCC)c1=O` [DPCPX, 8-Cyclopentyl-1,3-dipropylxanthine], the acupuncture-induced acute analgesia [1] was “inhibited the manifestation” and the “acupuncture-induced RHyp” value [1] was “inhibited the manifestation”.
